Experimental data reported in patent publication US6706740B2, “Fungicidal heterocyclic aromatic amides and their compositions, methods of use and preparation” (Dow AgroSciences LLC, priority 1999, dated 2004).

Columns and labels:
[1] = test system: Phytophthora infestans—PHYTIN; assay: whole plant or invertebrate; format: in vivo; details: Phytophthora, in Solanum lycopersicum, 24 h, read-out: PHYTIN in vivo 1 Day Protectant
Ustilago maydis (USTIMA) = assay: microbe, parasite or virus in culture; format: cell-based; details: Mycosarcoma maydis, read-out: USTIMA in vitro Growth Inhibition
[2] = test system: Leptosphaeria nodorum—LEPTNO; assay: Glume Blotch of Wheat, in vivo whole plant, 24 Hour Protectant; details: 100 ppm spray, wheat, 24 hour protectant, % control of fungal infection vs untreated plants; for pest or weed control at 100 ppm: Leptosphaeria, read-out: LEPTNO in vivo 1 Day Protectant
[3] = test system: Rhizoctonia solani (RHIZSO); assay: microbe, parasite or virus in culture; format: cell-based; details: Rhizoctonia solani, read-out: RHIZSO in vitro Growth Inhibition
Septoria tritici—SEPTTR = assay: Leaf Blotch of Wheat, in vivo whole plant, 24 Hour Protectant; details: 100 ppm spray, wheat, 24 hour protectant, % control of fungal infection vs untreated plants; for pest or weed control at 100 ppm: Zymoseptoria tritici, 24 h, read-out: SEPTTR in vivo 1 Day Protectant
[4] = test system: Magnaporthe grisea (Pyricularia oryzae—PYRIOR); assay: microbe, parasite or virus in culture; format: cell-based; details: Pyricularia oryzae, read-out: PYRIOR in vitro Growth Inhibition
[5] = test system: Mycosphaerella graminicola (Septoria tritici—SEPTTR); assay: In vitro fungal growth inhibition, Mycosphaerella graminicola (SEPTTR); format: cell-based; details: Zymoseptoria tritici; 25 ppm in growth medium; read-out: SEPTTR in vitro Growth Inhibition
[6] = test system: Puccinia recondita—PUCCRT; assay: Brown Rust of Wheat, in vivo whole plant, 24 Hour Protectant; details: 100 ppm spray, wheat, 24 hour protectant, % control of fungal infection vs untreated plants; for pest or weed control at 100 ppm: Puccinia, read-out: PUCCRT in vivo 1 Day Protectant
[7] = test system: Stagonospora nodorum (Leptosphaeria nodorum—LEPTNO); assay: In vitro fungal growth inhibition, Stagonospora nodorum (LEPTNO); format: cell-based; details: Leptosphaeria; 25 ppm in growth medium; read-out: LEPTNO in vitro Growth Inhibition
Erysiphe graminis—ERYSGT = assay: Powdery Mildew of Wheat, in vivo whole plant, 24 Hour Protectant; details: 100 ppm spray, wheat, 24 hour protectant, % control of fungal infection vs untreated plants; for pest or weed control at 100 ppm: Erysiphe, read-out: ERYSGT in vivo 1 Day Protectant
[8] = test system: Phytophthora infestans (PHYTIN); assay: microbe, parasite or virus in culture; format: cell-based; details: Phytophthora infestans, read-out: PHYTIN in vitro Growth Inhibition

SMILES	pest or weed control at 100 ppm [1] [%]	melting point [°C]	inhibition at 25 ppm (Ustilago maydis (USTIMA)) [%]	LEPTNO in vivo 1 Day Protectant [2]	inhibition at 25 ppm [3] [%]	SEPTTR in vivo 1 Day Protectant (Septoria tritici—SEPTTR)	inhibition at 25 ppm [4] [%]	inhibition at 25 ppm [5] [%]	PUCCRT in vivo 1 Day Protectant [6]	inhibition at 25 ppm [7] [%]	ERYSGT in vivo 1 Day Protectant (Erysiphe graminis—ERYSGT)	inhibition at 25 ppm [8] [%]	pest or weed control at 100 ppm (Erysiphe graminis—ERYSGT) [%]	pest or weed control at 100 ppm [2] [%]	pest or weed control at 100 ppm (Septoria tritici—SEPTTR) [%]	pest or weed control at 100 ppm [6] [%]
CCC(=O)Oc1c(OC)ccnc1C(=O)N[C@H]1COC(=O)[C@H](Cc2ccccc2)[C@@H](OC(=O)C(C)C)[C@H](C)OC1=O [Compound 598]	< 25	171 to 172	< 80	+ +	< 80	+ +	< 80	> 80	+ +	> 80	+ +	< 80	–	–	–	–
CCCC(=O)Oc1c(OC)ccnc1C(=O)N[C@H]1COC(=O)[C@H](Cc2ccccc2)[C@@H](OC(=O)C(C)C)[C@H](C)OC1=O [Compound 599]	< 25	162 to 163	< 80	+ +	< 80	+ +	< 80	> 80	+ +	> 80	–	< 80	< 25	–	–	–
COc1ccnc(C(=O)N[C@H]2COC(=O)[C@H](Cc3ccccc3)[C@@H](OC(=O)C(C)C)[C@H](C)OC2=O)c1OC(=O)C1CC1 [Compound 601]	< 25	195 to 196	< 80	+ +	< 80	+ +	< 80	< 80	+ +	< 80	–	< 80	< 25	–	–	–
COc1ccnc(C(=O)N[C@H]2COC(=O)[C@H](Cc3ccccc3)[C@@H](OC(=O)C(C)C)[C@H](C)OC2=O)c1OC(=O)C1CCC1 [Compound 604]	< 25	176 to 177	< 80	+ +	< 80	+ +	< 80	< 80	+ +	< 80	+ +	< 80	–	–	–	–
COc1ccnc(C(=O)N[C@H]2COC(=O)[C@H](Cc3ccccc3)[C@@H](OC(=O)C(C)C)[C@H](C)OC2=O)c1OC(=O)CC(C)(C)C [Compound 610]	< 25	151 to 152	< 80	–	< 80	–	< 80	< 80	–	> 80	–	< 80	< 25	< 25	< 25	25 to 74
COCCC(=O)Oc1c(OC)ccnc1C(=O)N[C@H]1COC(=O)[C@H](Cc2ccccc2)[C@@H](OC(=O)C(C)C)[C@H](C)OC1=O [Compound 658]	< 25	126 to 128	< 80	+ +	< 80	+ +	> 80	< 80	+ +	< 80	–	< 80	< 25	–	–	–
COCCC(=O)Oc1c(OC)ccnc1C(=O)N[C@H]1COC(=O)[C@H](Cc2ccccc2)[C@@H](OC(=O)C(C)(C)C)[C@H](C)OC1=O [Compound 703]	< 25	144 to 145	< 80	+ +	< 80	+ +	< 80	< 80	+ +	> 80	+ +	< 80	–	–	–	–
COCCC(=O)Oc1c(OC)ccnc1C(=O)Nc1ccc(C(=O)c2cccc(C(F)(F)F)c2)cc1 [Compound 706]	< 25	158 to 160	< 80	–	< 80	–	< 80	< 80	–	> 80	–	< 80	< 25	25 to 74	25 to 74	< 25
COc1ccnc(C(=O)Nc2ccc(Sc3cccc(C(F)(F)F)c3)cc2)c1OC(C)=O [Compound 711]	< 25	134 to 136	< 80	–	< 80	+ +	> 80	> 80	–	> 80	–	< 80	< 25	25 to 74	–	< 25
COCCC(=O)Oc1c(OC)ccnc1C(=O)Nc1ccc(C(=O)Nc2cccc(C(F)(F)F)c2)cc1 [Compound 713]	< 25	164 to 167	< 80	–	< 80	–	< 80	< 80	–	< 80	–	< 80	< 25	25 to 74	< 25	< 25
COCCC(=O)Oc1c(OC)ccnc1C(=O)Nc1cccc(C(=O)Nc2ccc(C(F)(F)F)cc2)c1 [Compound 714]	< 25	187 to 189	< 80	–	< 80	–	< 80	< 80	–	< 80	–	< 80	< 25	25 to 74	25 to 74	< 25
COc1ccnc(C(=O)Nc2ccc(C(=O)Oc3cccc(C(F)(F)F)c3)cc2)c1OC(C)=O [Compound 715]	< 25	166 to 169	< 80	–	< 80	–	< 80	< 80	–	< 80	–	< 80	< 25	25 to 74	< 25	25 to 74
COc1ccnc(C(=O)Nc2ccc(C(=O)Oc3ccc(C(F)(F)F)cc3)cc2)c1OC(C)=O [Compound 717]	< 25	203 to 205	< 80	–	< 80	–	< 80	< 80	–	< 80	–	< 80	< 25	25 to 74	25 to 74	< 25
